Reference: patent US3951954A, “Novel oxofuryl ester derivatives of penicillin and cephalosporin” (priority 1971, dated 1976)
Where a name gives a salt, the structure may show the parent alone.

Columns and labels:
[1] = Concentration of ampicillin in blood plasma of rats after oral administration (Experiment a); conditions: rat, in vivo, 20 mg/kg
Text: Now, for showing the excellent properties of the compounds of this invention, the experiments of testing the concentration of the compound in blood when it was orally administered and the results thereof are shown in the following examples together with the results of the tests made about ampicillin and pivampicillin.
Each of ampicillin tri-hydrate, pivampicillin hydrochloride-mono-hydrate, and the hydrochloride of the aimed compound of this invention was orally administered to rats (male, each group five rats) in an amount of 20 mg/kg as ampicillin and after 0.5 hour, the blood was drawn and the concentration of ampicillin in the blood plasma was measured.

[2] = background statement; cited from earlier work
[3] = Chemical Abstracts 45, 4824h (1951); 55, 8653d (1961); cited from earlier work
liver = conditions: Biochem. Pharmacol. 16, 1533-1537 (1967) and others; cited from earlier work

Compound `CC1(C)S[C@@H]2[C@H](NC(=O)[C@H](N)c3ccccc3)C(=O)N2[C@H]1C(=O)O` [Ampicillin tri-hydrate, reference compound] has a concentration at 0.5 h [1] of 1000 ng/mL.

For `CC1(C)S[C@@H]2[C@H](NC(=O)[C@H](N)c3ccccc3)C(=O)N2[C@H]1C(=O)OC1OC(=O)c2ccccc21` (some centres unmarked) [Example 2, ampicillin 1-oxo-1,3-dihydroisobenzofuran-3-yl ester hydrochloride], the “Concentration of ampicillin in blood plasma” value ([1]; 30 min) was 5580 ng/mL.

For `CC1(C)S[C@@H]2C(NC(=O)C(N)c3ccccc3)C(=O)N2[C@H]1C(=O)O` (stereo partly drawn) [ampicillin, 6-(α-aminophenylacetamido)penicillanic acid], the “extent of absorption by oral administration” value [2] is given as “not necessarily sufficient”.

In the case of `C=O` [formaldehyde], the “toxic property compared with other aldehydes of larger molecular weight” value [3] is listed as “about 50 times” and the influence on liver (liver) is listed as “bad influences on a liver”.
